From patent US20250051319A1 (AUGUSTINE THERAPEUTICS, priority 2021, published 2025)

Experiments:
[1] = target: human full-length recombinant HDAC1 (Homo sapiens (Human), UniProt Q13547); test: HDAC1 enzymatic activity assay (alternative protocol, Ac-Gly-Ala-Lys(Ac)-AMC); assay type: biochemical; conditions: 4 nM enzyme, read-out: HDAC1 biochem
Protocol: (§1) Inhibition of HDAC enzymes was performed in 384-well plate format using human full-length recombinant HDAC1 and HDAC6, isolated from a baculovirus expression system in Sf9 cells (BPS Bioscience). Reaction buffer for HDAC1 contained 50 mM Tris HCl pH 8.0, 137 mM NaCl, 2.7 mM KCl, 1 mM MgCl2, 0.1 mg/mL BSA, and reaction buffer for HDAC6 contained 50 mM Tris/HCl, pH 8.0, 137 mM NaCl, 2.7 mM KCl, 250 μM EDTA, 1 mM DTT, 0.1 mg/mL BSA. Compounds (dissolved in 100% DMSO) or DMSO (vehicle) were diluted in assay buffer at 3× final assay concentration and then added to assay plates. SAHA ([…]) was used as a positive control. 3× final assay concentration of recombinant enzymes (final assay concentration is 4 nM and 5 nM for HDAC1 and HDAC6, respectively) were preincubated for 10 minutes with test compounds at room temperature. Afterwards, 3× final assay concentration of an acetylated fluorogenic peptide (Ac-Gly-Ala-Lys(Ac))-AMC, Bachem; final assay concentration is 12 µM and 40 µM for HDAC1 and HDAC6, respectively) was added to assay plate, allowing deacetylase reactions to incubate for 60 minutes at room temperature. The developer reagent containing 5 μM SAHA and 50 μM trypsin was added to stop the deacetylase reaction and generate AMNC-fluorescence. 15 minutes after addition of developer reagent, endpoint measurements were taken using CLARIOstar (BMG Labtech) plate reader (excitation/emission: 360/450). Fluorescence signals were normalized for each plate using GraphPad Prism software: reaction HDAC-substrate in presence of DMSO was set to 100% while reaction HDAC-substrate in presence of 10 μM SAHA was set to 0%.

[2] = target: catalytic domain 2 (CD2) of HDAC6 (Homo sapiens (Human), UniProt Q9UBN7); test: Cellular target engagement assay - NanoBRET; assay type: cell-based; conditions: NanoLuc-HDAC6(CD2) in HEK293T cells, 2 hours, read-out: IC50 (HDAC6(CD2) interaction)
Chain of catalytic domain 2 (CD2) of HDAC6 (Q9UBN7 482-800): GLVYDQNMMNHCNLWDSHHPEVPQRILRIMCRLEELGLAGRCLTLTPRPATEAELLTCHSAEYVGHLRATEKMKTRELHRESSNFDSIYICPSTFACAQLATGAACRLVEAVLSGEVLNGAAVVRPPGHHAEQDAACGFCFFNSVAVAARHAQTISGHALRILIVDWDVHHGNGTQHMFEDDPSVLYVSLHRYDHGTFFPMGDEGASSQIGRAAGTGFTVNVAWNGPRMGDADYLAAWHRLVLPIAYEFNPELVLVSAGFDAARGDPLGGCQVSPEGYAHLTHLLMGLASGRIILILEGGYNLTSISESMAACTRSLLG

[3] = target: human full-length recombinant HDAC6 (Homo sapiens (Human), UniProt Q9UBN7); test: HDAC6 enzymatic activity assay (alternative protocol, Ac-Gly-Ala-Lys(Ac)-AMC); assay type: biochemical; conditions: 5 nM enzyme, read-out: HDAC6 biochem
Chain of human full-length recombinant HDAC6 (Q9UBN7 whole entry): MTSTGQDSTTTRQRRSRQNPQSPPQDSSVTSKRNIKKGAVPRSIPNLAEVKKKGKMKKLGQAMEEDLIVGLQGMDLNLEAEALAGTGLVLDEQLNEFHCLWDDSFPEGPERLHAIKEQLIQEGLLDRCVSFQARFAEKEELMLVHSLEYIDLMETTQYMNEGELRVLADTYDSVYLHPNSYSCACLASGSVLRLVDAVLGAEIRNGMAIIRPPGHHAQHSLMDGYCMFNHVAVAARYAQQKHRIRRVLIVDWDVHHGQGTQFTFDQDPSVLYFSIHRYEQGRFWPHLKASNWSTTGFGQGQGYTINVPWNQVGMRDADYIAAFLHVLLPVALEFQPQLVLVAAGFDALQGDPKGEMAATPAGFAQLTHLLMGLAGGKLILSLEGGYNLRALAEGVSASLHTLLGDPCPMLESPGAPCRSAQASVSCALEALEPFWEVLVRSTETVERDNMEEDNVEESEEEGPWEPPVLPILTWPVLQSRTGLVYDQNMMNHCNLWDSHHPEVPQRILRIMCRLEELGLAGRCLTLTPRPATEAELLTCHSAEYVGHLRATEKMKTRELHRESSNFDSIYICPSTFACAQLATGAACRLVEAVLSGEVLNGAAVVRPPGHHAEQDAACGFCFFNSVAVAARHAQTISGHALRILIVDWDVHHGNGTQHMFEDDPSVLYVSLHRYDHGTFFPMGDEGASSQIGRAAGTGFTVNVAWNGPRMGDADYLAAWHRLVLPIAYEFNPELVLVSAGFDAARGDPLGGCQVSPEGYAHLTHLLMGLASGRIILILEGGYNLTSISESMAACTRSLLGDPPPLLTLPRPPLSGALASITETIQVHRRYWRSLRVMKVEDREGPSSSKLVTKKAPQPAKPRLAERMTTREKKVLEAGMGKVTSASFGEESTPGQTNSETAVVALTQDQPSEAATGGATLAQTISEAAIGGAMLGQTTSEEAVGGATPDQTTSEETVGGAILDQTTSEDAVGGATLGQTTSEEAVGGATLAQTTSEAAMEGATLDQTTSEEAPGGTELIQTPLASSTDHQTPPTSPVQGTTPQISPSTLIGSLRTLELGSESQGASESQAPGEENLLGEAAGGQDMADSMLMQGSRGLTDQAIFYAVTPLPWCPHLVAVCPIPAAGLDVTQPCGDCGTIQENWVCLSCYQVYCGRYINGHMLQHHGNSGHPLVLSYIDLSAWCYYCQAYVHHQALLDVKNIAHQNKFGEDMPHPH
Protocol: as §1

Chain of human full-length recombinant HDAC1 (Q13547 whole entry): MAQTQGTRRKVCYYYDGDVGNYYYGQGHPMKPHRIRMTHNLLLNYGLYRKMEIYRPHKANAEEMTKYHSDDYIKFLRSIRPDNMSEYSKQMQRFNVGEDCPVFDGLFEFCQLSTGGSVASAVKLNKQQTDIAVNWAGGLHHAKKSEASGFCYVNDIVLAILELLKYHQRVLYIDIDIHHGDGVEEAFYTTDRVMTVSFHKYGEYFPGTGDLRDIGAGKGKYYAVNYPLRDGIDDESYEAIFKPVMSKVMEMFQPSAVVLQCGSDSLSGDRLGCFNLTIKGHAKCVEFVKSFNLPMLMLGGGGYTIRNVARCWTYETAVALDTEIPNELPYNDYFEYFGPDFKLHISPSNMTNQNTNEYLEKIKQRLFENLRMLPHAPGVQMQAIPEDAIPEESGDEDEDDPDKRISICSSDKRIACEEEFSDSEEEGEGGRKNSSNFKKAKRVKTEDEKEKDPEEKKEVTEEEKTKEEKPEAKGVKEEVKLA

Structure (SMILES) | IC50 [1] [nM] | IC50 [2] [nM] | IC50 [3] [nM]
Cc1nc(SCC(=O)c2ccc(CNC(=O)C(C)(C)C)s2)c2cccnc2n1 [Example 7, N-((5-(2-((2-methylpyrido[2,3-d]pyrimidin-4-yl)thio)acetyl)thiophen-2-yl)methyl)pivalamide] | 1000 to 10000 | ≤ 100 | ≤ 100
Cc1nc(SCC(=O)c2ccc(CNC(=O)C(C)(C)C)s2)c2cnn(C)c2n1 [Example 5, N-((5-(2-((1,6-dimethyl-1H-pyrazolo[3,4-d]pyrimidin-4-yl)thio)acetyl)thiophen-2-yl)methyl)pivalamide] | > 10000 | 500 to 1000 | ≤ 100
CN(Cc1ccc(C(=O)CSc2ncnc3c2cnn3C)s1)S(=O)(=O)Cc1ccncc1 [Compound 92, N-methyl-N-((5-(2-((1-methyl-1H-pyrazolo[3,4-d]pyrimidin-4-yl)thio)acetyl)thiophen-2-yl)methyl)-1-(162yrrolid-4-yl)methanesulfonamide] | 1000 to 10000 | 100 to 500 | ≤ 100
Cc1nc(SCC(=O)c2ccc(CNC(=O)C(C)(C)C)s2)c2ccc(Cl)cc2n1 [Example 8, N-((5-(2-((7-chloro-2-methylquinazolin-4-yl)thio)acetyl)thiophen-2-yl)methyl)pivalamide] | > 10000 | 100 to 500 | ≤ 100
CN(Cc1ccc(C(=O)CSc2ncnc3c2cnn3C)s1)S(=O)(=O)C1CC1 [Compound 91, N-methyl-N-((5-(2-((1-methyl-1H-pyrazolo[3,4-d]pyrimidin-4-yl)thio)acetyl)thiophen-2-yl)methyl)cyclopropanesulfonamide] | > 10000 | 100 to 500 | ≤ 100
CC(C)c1nc(SCC(=O)c2ccc(CNC(=O)C(C)(C)C)s2)c2ccccc2n1 [Example 1, N-((5-(2-((2-isopropylquinazolin-4-yl)thio)acetyl)thiophen-2-yl)methyl)pivalamide] | > 10000 | 100 to 500 | ≤ 100
CC(C)(C)C(=O)NCc1ccc(C(=O)CSc2nc(C3CC3)nc3ccccc23)s1 [Example 2, N-((5-(2-((2-cyclopropylquinazolin-4-yl)thio)acetyl)thiophen-2-yl)methyl)pivalamide] | > 10000 | 100 to 500 | ≤ 100
CS(=O)(=O)NCCc1ccc(C(=O)CSc2nc(C(F)(F)F)nc3ccccc23)s1 [Compound 98, N-(2-(5-(2-((2-(trifluoromethyl)quinazolin-4-yl)thio)acetyl)thiophen-2-yl)ethyl)methanesulfonamide] | > 10000 | ≤ 100 | ≤ 100
Cn1ncc2c(SCC(=O)c3ccc(CNC(=O)Cc4ccccn4)s3)ncnc21 [Compound 55, N-((5-(2-((1-methyl-1H-pyrazolo[3,4-d]pyrimidin-4-yl)thio)acetyl)thiophen-2-yl)methyl)-2-(160yrrolid-2-yl)acetamide] | > 10000 | 500 to 1000 | ≤ 100
Cc1nc(SCC(=O)c2ccc(CNS(=O)(=O)CC3CC3)s2)c2ccccc2n1 [Compound 93, 1-cyclopropyl-N-((5-(2-((2-methylquinazolin-4-yl)thio)acetyl)thiophen-2-yl)methyl)methanesulfonamide] | > 10000 | 100 to 500 | ≤ 100
Cc1nc(SCC(=O)c2ccc(CNS(C)(=O)=O)s2)c2ccccc2n1 [Compound 97, N-((5-(2-((2-methylquinazolin-4-yl)thio)acetyl)thiophen-2-yl)methyl)methanesulfonamide] | 1000 to 10000 | 100 to 500 | ≤ 100
Cn1ncc2c(SCC(=O)c3ccc(CNC(=O)Cc4ccncc4)s3)ncnc21 [Compound 57, N-((5-(2-((1-methyl-1H-pyrazolo[3,4-d]pyrimidin-4-yl)thio)acetyl)thiophen-2-yl)methyl)-2-(160yrrolid-4-yl)acetamide] | > 10000 | 100 to 500 | ≤ 100
Cn1ncc2c(SCC(=O)c3ccc(CNC(=O)C(C)(C)C)s3)nc(C3CC3)nc21 [Example 6, N-((5-(2-((6-cyclopropyl-1-methyl-1H-pyrazolo[3,4-d]pyrimidin-4-yl)thio)acetyl)thiophen-2-yl)methyl)pivalamide] | > 10000 | 100 to 500 | ≤ 100
Cn1ncc2c(SCC(=O)c3ccc(CNC(=O)CO)s3)ncnc21 [Compound 59, 2-hydroxy-N-((5-(2-((1-methyl-1H-pyrazolo[3,4-d]pyrimidin-4-yl)thio)acetyl)thiophen-2-yl)methyl)acetamide] | > 10000 | 100 to 500 | ≤ 100
Cc1nc(SCC(=O)c2ccc(CNC(=O)C(C)(C)C)s2)c2ccccc2n1 [Example 3, N-((5-(2-((2-methylquinazolin-4-yl)thio)acetyl)thiophen-2-yl)methyl)pivalamide] | 1000 to 10000 | ≤ 100 | ≤ 100

The next lines start with the values.

IC50 [1] [nM] | IC50 [2] [nM] | IC50 [3] [nM] | Structure (SMILES)
> 10000 | 100 to 500 | ≤ 100 | CC(C)(C)C(=O)NCCc1ccc(C(=O)CSc2nc(C(F)(F)F)nc3ccccc23)s1 [Example 29, N-(2-(5-(2-((2-(trifluoromethyl)quinazolin-4-yl)thio)acetyl)thiophen-2-yl)ethyl)pivalamide]
> 10000 | 100 to 500 | ≤ 100 | Cc1ccc2c(SCC(=O)c3ccc(CNC(=O)C(C)(C)C)s3)nc(C)nc2c1 [Example 11, N-((5-(2-((2,7-dimethylquinazolin-4-yl)thio)acetyl)thiophen-2-yl)methyl)pivalamide]
> 10000 | 500 to 1000 | ≤ 100 | Cn1ncc2c(SCC(=O)c3ccc(CNC(=O)C(C)(C)C)s3)nc(C(F)F)nc21 [Example 21, N-((5-(2-((6-(difluoromethyl)-1-methyl-1H-pyrazolo[3,4-d]pyrimidin-4-yl)thio)acetyl)thiophen-2-yl)methyl)pivalamide]
1000 to 10000 | 100 to 500 | ≤ 100 | Cc1ccc2oc(SCC(=O)c3ccc(CNC(=O)C(C)(C)C)s3)nc2n1 [Example 23, N-((5-(2-((5-methyloxazolo[4,5-b]pyridine-2-yl)thio)acetyl)thiophen-2-yl)methyl)pivalamide]
> 10000 | 100 to 500 | ≤ 100 | O=C(CSc1nc(C(F)(F)F)nc2ccccc12)c1ccc(CCN2CCCC2=O)s1 [Example 26, 1-(2-(5-(2-((2-(trifluoromethyl)quinazolin-4-yl)thio)acetyl)thiophen-2-yl)ethyl)pyrrolidin-2-one]
> 10000 | 100 to 500 | ≤ 100 | CC(C)(C)C(=O)NCc1ccc(C(=O)CSc2nc(C(F)F)nc3ccccc23)s1 [Example 19, N-((5-(2-((2-(difluoromethyl)quinazolin-4-yl)thio)acetyl)thiophen-2-yl)methyl)pivalamide]
> 10000 | 100 to 500 | ≤ 100 | CC(C)(C)C(=O)NCc1ccc(C(=O)CSc2nncc3ccccc23)s1 [Example 193, N-((5-(2-(phthalazin-1-ylthio)acetyl)thiophen-2-yl)methyl)pivalamide]
> 10000 | ≤ 100 | ≤ 100 | O=C(CSc1nc(C(F)(F)F)nc2ccccc12)c1ccc(CCNC(=O)C2CC2)s1 [Example 36, N-(2-(5-(2-((2-(trifluoromethyl)quinazolin-4-yl)thio)acetyl)thiophen-2-yl)ethyl)cyclopropanecarboxamide]
> 10000 | 100 to 500 | ≤ 100 | Cc1nc(SCC(=O)c2ccc(CNC(=O)C3CC3)s2)c2ccccc2n1 [Example 35, N-((5-(2-((2-methylquinazolin-4-yl)thio)acetyl)thiophen-2-yl)methyl)cyclopropanecarboxamide]
> 10000 | 100 to 500 | ≤ 100 | Cc1nc(SCC(=O)c2ccc(CNC(=O)C(C)(C)C)s2)c2cc(F)ccc2n1 [Example 9, N-((5-(2-((6-fluoro-2-methylquinazolin-4-yl)thio)acetyl)thiophen-2-yl)methyl)pivalamide]
> 10000 | 100 to 500 | ≤ 100 | Cc1nc(SCC(=O)c2ccc(CNC(=O)C(C)(C)C)s2)c2ccc(F)cc2n1 [Example 10, N-((5-(2-((7-fluoro-2-methylquinazolin-4-yl)thio)acetyl)thiophen-2-yl)methyl)pivalamide]
> 10000 | ≤ 100 | ≤ 100 | Cn1ncc2c(SCC(=O)c3ccc(CNC(=O)c4ccccc4)s3)ncnc21 [Example 30, N-((5-(2-((1-methyl-1H-pyrazolo[3,4-d]pyrimidin-4-yl)thio)acetyl)thiophen-2-yl)methyl)benzamide]
> 10000 |  | ≤ 100 | CC(C)(C)C(=O)NCc1ccc(C(=O)CSc2nnc(C(F)(F)F)c3ccccc23)s1 [Example 195]
